SMILES strings stand for the structures.

The record followed here is patent publication US20170027949A1, “ASSOCIATION BETWEEN 8-CYCLOPROPYL-3-[2-(3-FLUOROPHENYL)ETHYL]-7,8-DIHYDRO-3H-[1,3]OXAZINO[6,5-g][1,2,3]BENZOTRIAZINE-4,9-DIONE AND AN ACETYLCHOLINESTERASE INHIBITOR, AND PHARMACEUTICAL COMPOSITIONS CONTAINING IT” (priority 2014, published 2017).

The test system of one data set is 3-month-old C57BL/6 mice. The data set can be described thus: Excitatory post-synaptic potentials (EPSP) induced by electrical stimulation in alert mice (perforant pathway / dentate gyrus of the hippocampus). It is filed as in vivo. Conditions: single dose p.o.: Compound S 3 mg/kg, rivastigmine 0.03 mg/kg, alone or in association.
Data set [1] deals with C57BL/6 mice having an average age of 14-15 months. The data set can be described thus: Contextual serial discrimination test (model of episodic memory). It is filed as in vivo. Particulars: for percentage of correct responses: chronic treatment for 9 days, middle-aged mice, carrier 26.4%. An excerpt:
The effects of 8-cyclopropyl-3-[2-(3-fluorophenyl)ethyl]-7,8-dihydro-3H-[1,3]oxazino-[6,5-g][1,2,3]benzotriazine-4,9-dione and of donepezil (the latter used in the form of a hydrochloride), administered on their own or in combination, were studied using a contextual serial discrimination test in C57BL/6 mice having an average age of 14-15 months (n=12 per group) (Célérier et al., Learn Mem. 2004, 11(2), 196-204; Tronche et al., Behav. Brain Res. 2010, 215(2), 255-260).
The mice, placed in a high-sided box, learn two types of consecutive spatial discriminations (D1: white floor then D2: black floor) on a floor having four holes, in which only one of the holes is baited, opposite holes being baited in D1 and D2. Each discrimination is performed on a specific floor (white or black), which constitutes the internal context specific to each discrimination. Twenty-four hours after the learning step, the mice are returned to the white contextual floor and the following parameters are measured: • the percentage of correct responses (i.e. % of head dips in the hole that had been baited during the acquisition exercise on the white floor), • the percentage of interfering responses (i.e. % of head dips in the hole that had been baited during the acquisition exercise on the black floor, the last context presented to the mice), • and the percentage of errors (i.e. % of head dips in the two holes that had not been baited during the acquisition, either on the white floor or on the black floor) (see FIG. 1).

For the next data set, the system named is C57BL/6 mice. Description: Irwin's primary observation test. Conditions: on its own. On the procedure: The effects in terms of safety of 8-cyclopropyl-3-[2-(3-fluorophenyl)ethyl]-7,8-dihydro-3H-[1,3]oxazino[6,5-g][1,2,3]benzotriazine-4,9-dione and of donepezil (the latter in the form of a hydrochloride), administered on their own or in association, were studied using Irwin's primary observation test in C57BL/6 mice (n=4 individuals per group). Behavioural changes, physiological and neurotoxic symptoms, rectal temperature and also pupil diameter were recorded using a standardised observation grid derived from that of Irwin.

Description for 3-month-old C57BL/6 mice: Studying EPSPs induced by electrical stimulation in alert mice makes it possible to study physiologically an electrophysiological phenomenon which is the basis of neuronal activity and connected to the processes of memorisation and learning.
3-month-old C57BL/6 mice are anaesthetised with 0.8-3% halothane delivered by means of a mask. Once anaesthetised, stimulation and recording electrodes are inserted, respectively, in the perforant pathway and the dentate gyrus of the hippocampus of the animals. Following implantation of the electrodes, the mice are kept in cages for from 5 to 7 days with free access to food and water in order to allow complete recovery. Each implanted animal is alone in a cage until the end of the experiment.
After recovery, a stable baseline of evoked responses is induced using paired pulses (pulse duration 100 μs, negative-positive) administered at 3 pulses/minute to the stimulation electrode situated in the perforant pathway. The intervals between pulses are fixed at 40 ms (Gruart et al., J. Neurosci. 2006, 24, 1077-1087). The field EPSPs are monitored until a stable baseline is obtained (for 30 minutes). The products or the carrier are then administered, and the evoked field potentials are recorded. […] The evoked potentials are then recorded for approximately 2.5 hours after the last administration of compound or carrier.

For the compound `O=C1c2cc3nnn(CCc4cccc(F)c4)c(=O)c3cc2OCN1C1CC1` [Compound S, 8-cyclopropyl-3-[2-(3-fluorophenyl)ethyl]-7,8-dihydro-3H-[1,3]oxazino[6,5-g][1,2,3]benzotriazine-4,9-dione], the “amplitudes of the field EPSPs relative to the carrier group” value in the data set with 3-month-old C57BL/6 mice is listed as “does not induce a significant modification”. The figures for the “percentage of correct responses” value in data set [1] (0.1 mg/kg per os) and in data set [1] (0.3 mg/kg per os) were 43.7% and 48%, respectively. In addition, the “increase in level of correct responses relative to the carrier” value in data set [1] (doses of 0.1 and 0.3 mg/kg per os, 9 days, significant) is “more than 40%”.

Regarding `COc1cc2c(cc1OC)C(=O)C(CC1CCN(Cc3ccccc3)CC1)C2` (stereo not drawn) [donepezil], in data set [1] (0.1 mg/kg of base per os, 9 days), the “change in percentage of correct responses relative to the carrier” value is given as “slight non-significant increase”. Moreover, the “percentage of correct responses” value in data set [1] (0.1 mg/kg per os) is on record as 35.5%. For the same compound, the “change according to the standardised observation grid” value is “do not induce any change” with C57BL/6 mice (0.3 and 1 mg/kg of base per os, acute); “induces shaking, slight to moderate sedation, a loss of muscle tone and a decrease in reactivity to touch” in the data set with C57BL/6 mice (3 and 10 mg/kg of base per os).

As to `CCN(C)C(=O)Oc1cccc([C@H](C)N(C)C)c1` [rivastigmine], the “amplitudes of the field EPSPs relative to the carrier group” value in the data set with 3-month-old C57BL/6 mice was “does not induce a significant modification”.
